# Legend:
# human alpha2A receptors = biological target: T1, human alpha2A receptors (Homo sapiens, UniProt P08913); experiment: Determination of alpha2A antagonistic activity in vitro (intracellular calcium, FLIPR Calcium 3 Assay, FLEXstation); format: cell-based; conditions: CHO cells stably transfected with human alpha2A receptor and Gα16; stimulated with 100 nM adrenaline or 200 nM noradrenaline
# T1 construct: host or cells: CHO cells, cotransfected with expression vector pCEP-Galpha16
# T1 sequence (P08913 1-465): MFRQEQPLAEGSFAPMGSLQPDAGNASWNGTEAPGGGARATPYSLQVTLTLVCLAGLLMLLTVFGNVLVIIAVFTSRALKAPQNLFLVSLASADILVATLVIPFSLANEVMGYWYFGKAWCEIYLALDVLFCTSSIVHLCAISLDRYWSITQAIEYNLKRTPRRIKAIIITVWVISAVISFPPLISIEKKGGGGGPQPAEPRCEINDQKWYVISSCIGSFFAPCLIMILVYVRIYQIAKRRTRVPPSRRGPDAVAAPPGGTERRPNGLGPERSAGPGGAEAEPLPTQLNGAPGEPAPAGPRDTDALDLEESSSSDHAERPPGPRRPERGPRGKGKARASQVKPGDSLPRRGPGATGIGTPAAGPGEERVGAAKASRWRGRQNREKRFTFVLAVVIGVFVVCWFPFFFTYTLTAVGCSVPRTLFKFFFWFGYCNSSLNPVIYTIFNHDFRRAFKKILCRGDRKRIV
# Experimental: (§1) Chinese hamster ovary (CHO) cells stably transfected with human alpha2A and alpha2C or rodent alpha2D receptors (University of Turku, Finland) were cotransfected with the expression vector pCEP-Gα16 (Molecular Devices, CA, USA) and CHO cells stably transfected with human adrenergic alpha2B receptors and mitochondrially targeted aequorin (Euroscreen, Belgium) were used in this experiment. The cells were maintained at 37° C. in a 5% CO2/95% air atmosphere. The cells were cultured in HAM F-12 medium supplemented with 10% FCS, 25 mM HEPES, 100 IU/ml penicillin, 100 μg/ml streptomycin, 500 μg/ml geneticin and 240 μg/ml hygromycin B. The cells were subcultured twice weekly with 0.25% trypsin and 1 mM EDTA. The subculture ratio was 1:5-1:20. The growth medium was changed every 2 or 3 days. All cell culture reagents were from Gibco. The day before the experiment the cells were plated into black-walled, clear bottom 96-well plates at a density of 30,000-45,000 cells/well.
# (§2) The growth medium was removed and the cells were incubated with the test compounds and the FLIPR Calcium 3 Assay reagent (Molecular Devices, CA, USA) for 1 h at 37° C. in dark. The test compounds (concentrations in cells 100 pM-10 μM) were dissolved in Probenecid-Ringer consisting of 150 mM NaCl, 3 mM KCl, 1.2 mM MgCl2, 1 mM CaCl2, 5 mM glucose, 20 mM HEPES and 2.5 mM probenecid (pH 7.4 adjusted with 1.0 M NaOH). The osmolarity was adjusted to 322 milliosmoles with Osmostat® OM-6020 osmometer (DIC Kyoto Daiichi Kagagu Co. Ltd, Japan). […] All experiments were performed at 37° C. The test compounds dissolved in Probenecid-Ringer were applied by FLEX station at 17 s time point. […] In order to determine antagonism, the cells were stimulated either with 100 nM adrenaline or 200 nM noradrenaline and the test compounds were added to the cells at least 5 min before the experiment. Typically, there were four replicates at each concentration and seven different dose levels. For example, if the number of plates from which results were obtained was three, 84 (4*7*3) wells were thus measured to construct dose-response relationship. The samples were excited at 485 nm and emission was detected at 525 nm with a 515 nm cut-off filter. Reading time was 60 s per well and the photomultiplier sensitivity value was set to 15. The minimum fluorescence value subtracted from the maximum value for each well was used in the calculations. SOFTmax PRO version 3.2 software was used for analyzing the results. Fitting of the antagonist dose-response results was performed with the free Hill equation and the IC50 values were fitted with Michaelis-Menten equation in Sigma Plot 8.0.
# human alpha2C receptors = biological target: T2, human alpha2C receptors (Homo sapiens, UniProt P18825); experiment: Determination of alpha2C antagonistic activity in vitro (intracellular calcium, FLIPR Calcium 3 Assay, FLEXstation); format: cell-based; conditions: CHO cells stably transfected with human alpha2C receptor and Gα16; stimulated with 100 nM adrenaline or 200 nM noradrenaline
# T2 construct: host or cells: CHO cells, cotransfected with expression vector pCEP-Galpha16
# T2 sequence (P18825 1-462): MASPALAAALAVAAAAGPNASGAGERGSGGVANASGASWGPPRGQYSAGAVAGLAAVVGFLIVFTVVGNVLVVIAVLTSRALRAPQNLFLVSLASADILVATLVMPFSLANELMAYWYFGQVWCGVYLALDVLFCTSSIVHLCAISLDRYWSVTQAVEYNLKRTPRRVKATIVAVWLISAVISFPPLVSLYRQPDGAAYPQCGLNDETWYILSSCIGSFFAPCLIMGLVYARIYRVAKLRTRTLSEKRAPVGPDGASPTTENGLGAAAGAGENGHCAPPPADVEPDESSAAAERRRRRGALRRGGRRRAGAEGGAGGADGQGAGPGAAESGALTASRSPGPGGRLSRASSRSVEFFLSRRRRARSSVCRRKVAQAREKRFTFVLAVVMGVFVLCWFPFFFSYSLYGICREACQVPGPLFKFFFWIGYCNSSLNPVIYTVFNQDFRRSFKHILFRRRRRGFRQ
# Experimental: as §1, §2
IC50 (human alpha2A receptors),IC50 (human alpha2C receptors),Structure (SMILES)
5440 nM,4.6 nM,"C[C@]1(COCC(=O)O)CCCN(C[C@H]2COc3ccccc3O2)C1 [Example 96, Sodium {(S)-1-[(S)-1-(2,3-dihydrobenzo[1,4]dioxin-2-yl)methyl]-3-methylpiperidin-3-yl-methoxy}acetate]"
346 nM,7.4 nM,"CC1(COCC(F)(F)F)CCCN(CC2COc3ccccc3O2)C1 (stereo not drawn) [Example 74, 1-(2,3-Dihydrobenzo[1,4]dioxin-2-ylmethyl)-3-methyl-3-(2,2,2-trifluoroethoxymethyl)-piperidine]"
2140 nM,0.6 nM,"C[C@]1(COCCO)CCCN(C[C@H]2COc3ccccc3O2)C1 [Example 89, 2-{(S)-1-[(S)-1-(2,3-Dihydrobenzo[1,4]dioxin-2-yl)methyl]-3-methylpiperidin-3-ylmethoxy}-ethanol D-tartrate]"
2870 nM,2.4 nM,"CC1(COS(C)(=O)=O)CCCN(CC2COc3ccccc3O2)C1 (stereo not drawn) [Example 61, Methanesulfonic acid 1-(2,3-dihydrobenzo[1,4]dioxin-2-ylmethyl)-3-methylpiperidin-3-ylmethyl ester]"
1290 nM,1.7 nM,"C=CCOCC1(C)CCCN(CC2COc3ccccc3O2)C1 (stereo not drawn) [Example 69, 3-Allyloxymethyl-1-(2,3-dihydrobenzo[1,4]dioxin-2-ylmethyl)-3-methyl-piperidine]"

# Continued, compound first:
Structure (SMILES),IC50 (human alpha2A receptors),IC50 (human alpha2C receptors)
"C=CCC1(CO)CCCN(CC2COc3ccccc3O2)C1 (stereo not drawn) [Example 71, [3-Allyl-1-(2,3-dihydrobenzo[1,4]dioxin-2-ylmethyl)piperidin-3-yl]methanol]",1150 nM,1.1 nM
"COC(C)(C)C1(C)CCCN(CC2COc3ccccc3O2)C1 (stereo not drawn) [Example 58, 1-(2,3-Dihydrobenzo[1,4]dioxin-2-ylmethyl)-3-(1-methoxy-1-methylethyl)-3-methylpiperidine]",776 nM,9.5 nM
"c1ccc2c(c1)OCC(CN1CCC3CCCCC3C1)O2 (stereo not drawn) [Example 48, 2-(2,3-Dihydrobenzo[1,4]dioxin-2-ylmethyl)decahydroisoquinoline]",1470 nM,7.4 nM
"OCc1cccc(C2CCCN(C[C@H]3COc4ccccc4O3)C2)c1 (stereo in doubt) [Example 29, (3-{(R*)-1-[(S)-1-(2,3-Dihydrobenzo[1,4]dioxin-2-yl)methyl]piperidin-3-yl}phenyl)methanol]",4360 nM,5.4 nM
"C=CCC1(COC)CCCN(CC2COc3ccccc3O2)C1 (stereo not drawn) [Example 72, 3-Allyl-1-(2,3-dihydrobenzo[1,4]dioxin-2-ylmethyl)-3-methoxymethylpiperidine]",635 nM,0.9 nM
"C[C@]1(C(=O)O)CCCN(C[C@H]2COc3ccccc3O2)C1 [Example 86, Lithium (S)-1-[(S)-1-(2,3-dihydrobenzo[1,4]dioxin-2-yl)methyl]-3-methyl-piperidine-3-carboxylate]",8420 nM,10.7 nM
"Fc1ccc(C2CCCN(C[C@H]3COc4ccccc4O3)C2)cc1 (stereo in doubt) [Example 18, (R*)-1-[(S)-1-(2,3-Dihydrobenzo[1,4]dioxin-2-yl)methyl]-3-(4-fluorophenyl)piperidine]",> 10000 nM,69.5 nM
"CCC1(COC)CCCN(CC2COc3ccccc3O2)C1 (stereo not drawn) [Example 63, 1-(2,3-Dihydrobenzo[1,4]dioxin-2-ylmethyl)-3-ethyl-3-methoxymethylpiperidine]",2730 nM,0.8 nM
"Oc1ccccc1C1CCCN(CC2COc3ccccc3O2)C1 (stereo not drawn) [Example 12, 2-[1-(2,3-Dihydrobenzo[1,4]dioxin-2-ylmethyl)piperidin-3-yl]phenol]",374 nM,19.6 nM
"c1ccc(C2CCCN(CC3COc4ccccc4O3)C2)cc1 (stereo not drawn) [Example 2, 1-(2,3-Dihydrobenzo[1,4]dioxin-2-ylmethyl)-3-phenylpiperidine]",3780 nM,11.4 nM

# Reference: patent publication US8809536B2, “2,3-dihydrobenzo[1,4] dioxin-2-ylmethyl derivatives as alpha2C antagonists for use in the treatment of peripheric and central nervous system diseases” (Orion Corporation, priority 2007, dated 2014)
